Laboratory results reported in patent publication US11077090B2, “Compounds and compositions and uses thereof” (Sunovion Pharmaceuticals Inc., priority 2016, dated 2021).

Test system: compound-treated mice
Assay: Neuropharmacological assay (SmartCube): behavioral activity signature and minimal effective dose
Format: in vivo
Conditions: Mus musculus, ip, MED = dose having 50% or more total activity, read-out: Potency: minimal effective dose (MED)
In short: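 Video-recorded behavior is compared algorithmically against a reference-compound database, yielding class probabilities (best dose reported). Compounds given i.p. in NMP/PEG/propylene glycol 15 min pre-test at 3 doses; potency as MED, the dose (mpk, range usually 0.3–30) reaching ≥50% total activity.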

SMILES | minimal effective dose
Cc1cccc2c1[C@H](N)[C@H](C)OC2.Cl [Example 82] | < 3 mg/kg
Cc1cccc2c1[C@H](N)[C@@H](C)OC2.Cl [Example 83] | 3 to 10 mg/kg
COc1ccc2c(c1)[C@H](N)[C@H](C)OC2.Cl [Example 84] | 3 to 10 mg/kg
COc1ccc2c(c1)[C@H](N)[C@@H](C)OC2.Cl [Example 85] | 3 to 10 mg/kg
C[C@@H]1OCc2c(Cl)cccc2[C@@H]1N.Cl [Example 86] | 10 to 30 mg/kg
C[C@H]1OCc2c(Cl)cccc2[C@@H]1N.Cl [Example 87] | 3 to 10 mg/kg
C[C@@H]1OCc2ccc(F)cc2[C@@H]1N.Cl [Example 88] | < 3 mg/kg
C[C@H]1OCc2ccc(F)cc2[C@@H]1N.Cl [Example 89] | < 3 mg/kg
C[C@H]1OCc2ccc(Cl)c(Cl)c2[C@@H]1N.Cl [Example 92] | 10 to 30 mg/kg
C[C@@H]1OCc2cc(Cl)ccc2[C@@H]1N.Cl [Example 93] | 10 to 30 mg/kg
C[C@H]1OCc2cc(Cl)ccc2[C@@H]1N.Cl [Example 94] | 10 to 30 mg/kg
Cc1ccc2c(c1)CO[C@@H](C)[C@H]2N.Cl [Example 95] | < 3 mg/kg
Cc1ccc2c(c1)CO[C@H](C)[C@H]2N.Cl [Example 96] | < 3 mg/kg

Same assay, conditions: i.p. 15 min before test, most efficacious dose(s)

SMILES | AD: ADHD (probability of activity signature) | AG: analgesic (probability of activity signature) | AX: anxiolytic (probability of activity signature) | CE: cognitive enhancer (probability of activity signature) | DP: anti-depressant (probability of activity signature) | MS: mood stabilizer (probability of activity signature) | PS: anti-psychotic (probability of activity signature) | SD: sedative hypnotic (probability of activity signature) | UN: uncharacterized CNS activity (probability of activity signature)
Cc1cccc2c1[C@H](N)[C@H](C)OC2.Cl [Example 82] | + (LOQ ≤ + <5%) | ++ (5% ≤ ++ <25%) | +++ (25% ≤ +++ <50%) | ++ (5% ≤ ++ <25%) | ++ (5% ≤ ++ <25%) | + (LOQ ≤ + <5%) | ++ (5% ≤ ++ <25%) | ++ (5% ≤ ++ <25%) | +++ (25% ≤ +++ <50%)
Cc1cccc2c1[C@H](N)[C@@H](C)OC2.Cl [Example 83] | + (LOQ ≤ + <5%) | ++ (5% ≤ ++ <25%) | ++ (5% ≤ ++ <25%) | ++ (5% ≤ ++ <25%) | + (LOQ ≤ + <5%) | + (LOQ ≤ + <5%) | ++ (5% ≤ ++ <25%) | + (LOQ ≤ + <5%) | ++++ (50% ≤ ++++)
COc1ccc2c(c1)[C@H](N)[C@H](C)OC2.Cl [Example 84] | + (LOQ ≤ + <5%) | ++ (5% ≤ ++ <25%) | ++++ (50% ≤ ++++) | ++ (5% ≤ ++ <25%) | ++ (5% ≤ ++ <25%) | + (LOQ ≤ + <5%) | ++ (5% ≤ ++ <25%) | + (LOQ ≤ + <5%) | +++ (25% ≤ +++ <50%)
COc1ccc2c(c1)[C@H](N)[C@@H](C)OC2.Cl [Example 85] | + (LOQ ≤ + <5%) | +++ (25% ≤ +++ <50%) | ++ (5% ≤ ++ <25%) | ++ (5% ≤ ++ <25%) | ++ (5% ≤ ++ <25%) | + (LOQ ≤ + <5%) | + (LOQ ≤ + <5%) | + (LOQ ≤ + <5%) | +++ (25% ≤ +++ <50%)
C[C@@H]1OCc2c(Cl)cccc2[C@@H]1N.Cl [Example 86] | + (LOQ ≤ + <5%) | ++ (5% ≤ ++ <25%) | ++ (5% ≤ ++ <25%) | ++ (5% ≤ ++ <25%) | + (LOQ ≤ + <5%) | + (LOQ ≤ + <5%) | ++ (5% ≤ ++ <25%) | + (LOQ ≤ + <5%) | +++ (25% ≤ +++ <50%)
C[C@H]1OCc2c(Cl)cccc2[C@@H]1N.Cl [Example 87] | + (LOQ ≤ + <5%) | ++ (5% ≤ ++ <25%) | ++ (5% ≤ ++ <25%) | ++ (5% ≤ ++ <25%) | ++ (5% ≤ ++ <25%) | + (LOQ ≤ + <5%) | ++ (5% ≤ ++ <25%) | ++ (5% ≤ ++ <25%) | +++ (25% ≤ +++ <50%)
C[C@@H]1OCc2ccc(F)cc2[C@@H]1N.Cl [Example 88] | + (LOQ ≤ + <5%) | ++ (5% ≤ ++ <25%) | +++ (25% ≤ +++ <50%) | ++ (5% ≤ ++ <25%) | + (LOQ ≤ + <5%) | + (LOQ ≤ + <5%) | ++ (5% ≤ ++ <25%) | ++ (5% ≤ ++ <25%) | +++ (25% ≤ +++ <50%)
C[C@H]1OCc2ccc(F)cc2[C@@H]1N.Cl [Example 89] | + (LOQ ≤ + <5%) | ++ (5% ≤ ++ <25%) | ++ (5% ≤ ++ <25%) | ++ (5% ≤ ++ <25%) | + (LOQ ≤ + <5%) | + (LOQ ≤ + <5%) | ++ (5% ≤ ++ <25%) | ++ (5% ≤ ++ <25%) | ++++ (50% ≤ ++++)
C[C@H]1OCc2ccc(Cl)c(Cl)c2[C@@H]1N.Cl [Example 92] | + (LOQ ≤ + <5%) | + (LOQ ≤ + <5%) | ++ (5% ≤ ++ <25%) | + (LOQ ≤ + <5%) | ++ (5% ≤ ++ <25%) | + (LOQ ≤ + <5%) | + (LOQ ≤ + <5%) | + (LOQ ≤ + <5%) | ++++ (50% ≤ ++++)
C[C@@H]1OCc2cc(Cl)ccc2[C@@H]1N.Cl [Example 93] | + (LOQ ≤ + <5%) | ++ (5% ≤ ++ <25%) | +++ (25% ≤ +++ <50%) | + (LOQ ≤ + <5%) | ++ (5% ≤ ++ <25%) | + (LOQ ≤ + <5%) | ++ (5% ≤ ++ <25%) | + (LOQ ≤ + <5%) | + (LOQ ≤ + <5%)
C[C@H]1OCc2cc(Cl)ccc2[C@@H]1N.Cl [Example 94] | + (LOQ ≤ + <5%) | ++ (5% ≤ ++ <25%) | ++ (5% ≤ ++ <25%) | + (LOQ ≤ + <5%) | + (LOQ ≤ + <5%) | + (LOQ ≤ + <5%) | + (LOQ ≤ + <5%) | + (LOQ ≤ + <5%) | ++ (5% ≤ ++ <25%)
Cc1ccc2c(c1)CO[C@@H](C)[C@H]2N.Cl [Example 95] | + (LOQ ≤ + <5%) | ++ (5% ≤ ++ <25%) | ++ (5% ≤ ++ <25%) | ++ (5% ≤ ++ <25%) | ++ (5% ≤ ++ <25%) | + (LOQ ≤ + <5%) | +++ (25% ≤ +++ <50%) | + (LOQ ≤ + <5%) | +++ (25% ≤ +++ <50%)
Cc1ccc2c(c1)CO[C@H](C)[C@H]2N.Cl [Example 96] | + (LOQ ≤ + <5%) | ++ (5% ≤ ++ <25%) | +++ (25% ≤ +++ <50%) | ++ (5% ≤ ++ <25%) | ++ (5% ≤ ++ <25%) | + (LOQ ≤ + <5%) | ++ (5% ≤ ++ <25%) | + (LOQ ≤ + <5%) | +++ (25% ≤ +++ <50%)
